According to patent publication US20180222836A1, “Process for the Preparation of Pharmaceutical Grade Ferric Citrate” (Lupin Limited, priority 2015, published 2018):

Experiment: BET active specific surface area (U.S. Pharmacopeia General Chapter <846>)
Format: physicochemical
Conditions: pharmaceutical grade ferric citrate, dried powder from one-pot process
Procedure: According to the present invention, the pharmaceutical grade ferric citrate having BET surface area in the range of […]. the method of analysis for BET surface are of the ferric citrate is performed as per U.S. Pharmacopeia General Chapter <846>.

Substance | BET Active Specific Surface Area [m^2/gm]
ferric citrate [EXAMPLE-1] | 6.51
ferric citrate [EXAMPLE-2] | 6.47
